Assay type in all cases: in vivo
The subject of one test is Setaria viridis. The experiment in a line: Greenhouse trial, post-emergence, visual herbicidal effect. As to the method:
(§1) The weed seeds were sown in pots (diameter 8 cm) with sandy loam soil and germinated under optimum conditions. The herbides were applied by the post-emergence method onto the pots with the cultures, at a spray volume of 300 I/ha. The herbicides were applied on their own and in combination. The trial was conducted in a greenhouse under optimum growth conditions. The herbicidal effects were assessed visually by comparison of untreated and treated plants. The percentages mean: 0%=no effects, 100%=the plants die off completely). The percentages are used to calculate interactions between individual treatments and combination treatment according to S. R. Colby, Weeds 15, pages 20 to 22 (1967).
(§2) The abbreviations denote: • a.i.=active ingredient • E^C=expected value according to Colby (E^C=A+B−A×B100) • Δ=difference (%) of the measured value to the expected value (%) (measured value minus expected value)
(§3) Evaluation: • measured value E is greater than E^C:→synergism (+Δ) • measured value E equals E^C:→additive effect • measured value E is smaller than E^C:→antagonism (−Δ)

In another test the test system is Bidens pilosa. Described as above. As for the experimental part: as §1, §2, §3
Another test has as its system Pharbitis purpurea. The description is as above. To be noted: alone. As to the method: as §1, §2, §3
The test system of the next test is Ambrosia artemisiifolia. Described as above. The settings on record: alone. As to the method:
as §1, §2, §3

The test system of another test is Digitaria sanguinalis. The description is as above. To be noted: alone. As for the experimental part: as §1, §2, §3
The next test relates to Polygonum convolvulus. Described as above. The settings on record: alone. As for the experimental part: as §1, §2, §3
In another test the test system is Euphorbia heterophylla. Briefly: Field trial, post-emergence, visual scoring. As to the method:
(§4) The tests were conducted outdoors (plot trials, 10 m^2 per plot, 2 repetitions, spray application with 200-300 liters of water per hectare). Crops and broad-leaved weeds/weed grasses were sown under customary field conditions. In addition, a natural weed flora also appeared. Application was by the post-emergence method. The application rates of the herbicidally active compounds applied on their own or in combinations are likewise shown in the tables below. Evaluations were by visual scoring (using a 0-100% scale) after application by comparison of treated and untreated test variants.
as §2, §3

The next test has as its system Centaurea cyanis. The experiment in a line: Greenhouse trial, post-emergence, visual herbicidal effect. To be noted: Table 5-81, greenhouse, alone. As to the method: as §1, §2, §3
In the next test the test system is Papaver rhoeas. Described as above. The settings on record: alone. As to the method:
as §1, §2, §3

For the next test, the system named is Galium aparine. Briefly: Field trial, post-emergence, visual scoring. To be noted: Table 5-92, field, alone, 25 g of a.i./ha. As for the experimental part:
as §4, §2, §3

The next test relates to Brachiaria platyphylla. Briefly: Greenhouse trial, post-emergence, visual herbicidal effect. As to the method: as §1, §2, §3
A further test has as its system Xanthium strumarium. Described as above. To be noted: alone. As to the method: as §1, §2, §3
The test system of a further test is Portulaca oleracea. Briefly: Field trial, post-emergence, visual scoring. To be noted: alone. As to the method: as §4, §2, §3
The mark [1] stands for this setting: Table 5-91, greenhouse, 2 g of a.i./ha.
The mark [2] stands for this setting: Table 5-97, greenhouse, alone, 0.5 g of a.i./ha.
Setting [3] is: Table 5-99, greenhouse, 1 g of a.i./ha.
Where [4] appears, read: Table 5-101, greenhouse, 1 g of a.i./ha.
[5] abbreviates: Table 5-100, greenhouse, 1 g of a.i./ha.
Where [6] appears, read: Table 5-103, greenhouse, 2 g of a.i./ha.

As to `CCSc1c(Br)ccc(C(=O)Nc2nnnn2C)c1C` [A1-23], the “Activity [%] against Setaria viridis” value was 50% in the test on Setaria viridis (Table 5-27, greenhouse, alone, 2 g of a.i./ha) and 50% in the test with Setaria viridis (Table 5-31, greenhouse, alone, 2 g of a.i./ha). The “Activity [%] against Bidens pilosa” value with Bidens pilosa (Table 5-28, greenhouse, alone, 2 g of a.i./ha) is 45%; with Bidens pilosa (Table 5-33, greenhouse, alone, 1 g of a.i./ha) it was 35%. In addition, the “Activity [%] against Pharbitis purpurea” value in the test with Pharbitis purpurea (Table 5-30, greenhouse, 1 g of a.i./ha) turned out to be 45%; in the test on Pharbitis purpurea (Table 5-34, greenhouse, 2 g of a.i./ha) it was 45%. Moreover, the “Activity [%] against Ambrosia artemisiifolia” value is 10% in the test with Ambrosia artemisiifolia (Table 5-29, greenhouse, 1 g of a.i./ha) and 0% with Ambrosia artemisiifolia (Table 5-32, greenhouse, 1 g of a.i./ha). Also, the “Activity [%] against Digitaria sanguinalis” value in the test on Digitaria sanguinalis (Table 5-35, greenhouse, 1 g of a.i./ha) is listed as 10%.

As to `Cc1c(C(=O)Nc2nnnn2C)ccc(S(C)(=O)=O)c1C1=NOCC1` [A1-24], the “Activity [%] against Polygonum convolvulus” value with Polygonum convolvulus (Table 5-37, greenhouse, 6 g of a.i./ha) came to 0%. Moreover, the “Activity [%] against Digitaria sanguinalis” value with Digitaria sanguinalis (Table 5-36, greenhouse, 6 g of a.i./ha) is 50%.

For the compound `CCc1c(C(=O)Nc2nnnn2C)ccc(C(F)(F)F)c1SC` [A1-33], in the test with Polygonum convolvulus (Table 5-44, greenhouse, 4 g of a.i./ha), the “Activity [%] against Polygonum convolvulus” value amounted to 0%. For the same compound, the “Activity [%] against Setaria viridis” value in the test with Setaria viridis (Table 5-43, greenhouse, alone, 2 g of a.i./ha) turned out to be 75%.

For `CCOc1c(S(C)(=O)=O)ccc(C(=O)Nc2nnnn2C)c1Cl` [A1-69], the “Activity [%] against Euphorbia heterophylla” value with Euphorbia heterophylla (Table 5-85, field, alone, 25 g of a.i./ha) turned out to be 20%. Also, in the test on Polygonum convolvulus (Table 5-84, greenhouse, 4 g of a.i./ha), the “Activity [%] against Polygonum convolvulus” value came to 0%. Also, in the test with Centaurea cyanis (4 g of a.i./ha), the “Activity [%] against Centaurea cyanis” value was 65%. The “Activity [%] against Papaver rhoeas” value with Papaver rhoeas (Table 5-82, greenhouse, 4 g of a.i./ha) is listed as 10%; with Papaver rhoeas (Table 5-83, greenhouse, 4 g of a.i./ha) it was 10%.

For the compound `CCn1nnnc1NC(=O)c1ccc(C(F)F)c(SC)c1OC` [A1-79], the “Activity [%] against Galium aparine” value in the test with Galium aparine turned out to be 70%. The “Activity [%] against Bidens pilosa” value in the test with Bidens pilosa (Table 5-90, greenhouse, alone, 2 g of a.i./ha) is 20%. Besides, the “Activity [%] against Ambrosia artemisiifolia” value in the test on Ambrosia artemisiifolia (setting [1]) worked out at 30%.

`COc1c(C(=O)Nc2nnnn2C)ccc(C(F)F)c1S(C)(=O)=O` [A1-80]: in the test with Ambrosia artemisiifolia (Table 5-93, greenhouse, 1 g of a.i./ha), the “Activity [%] against Ambrosia artemisiifolia” value came out at 25%.

As for `CCS(=O)(=O)c1ccc(C(=O)Nc2nnnn2C)c(Cl)c1OCCCOC` [A1-83], in the test with Bidens pilosa (Table 5-96, greenhouse, alone, 1 g of a.i./ha), the “Activity [%] against Bidens pilosa” value was 35%. For the same compound, in the test on Brachiaria platyphylla (setting [2]), the “Activity [%] against Brachiaria platyphylla” value was 0%.

On to `CCn1nnnc1NC(=O)c1ccc(C)c([S+](C)[O-])c1Cl` (centres unmarked) [A1-84], for which the “Activity [%] against Xanthium strumarium” value in the test on Xanthium strumarium (setting [3]) was found to be 10%. In the test on Pharbitis purpurea (Table 5-98, greenhouse, 2 g of a.i./ha), the “Activity [%] against Pharbitis purpurea” value is 30%.

For the compound `CSc1c(C(F)(F)F)ccc(C(=O)Nc2nnnn2C)c1Cl` [A1-85], the “Activity [%] against Xanthium strumarium” value in the test on Xanthium strumarium (setting [4]) is 25%. Moreover, in the test with Ambrosia artemisiifolia (setting [5]), the “Activity [%] against Ambrosia artemisiifolia” value is 50%.

Regarding `Cc1c(C(=O)Nc2ncnn2C)ccc(S(C)(=O)=O)c1S(C)(=O)=O` [A2-4], in the test on Euphorbia heterophylla (Field, dosage 25 g of a.i./ha), the “Activity [%] against Euphorbia heterophylla” value is 50%. Besides, the “Activity [%] against Xanthium strumarium” value in the test with Xanthium strumarium (setting [6]) was 10%. In the test on Ambrosia artemisiifolia (Table 5-102, greenhouse, 1 g of a.i./ha), the “Activity [%] against Ambrosia artemisiifolia” value was determined as 40%.

As for `CCS(=O)(=O)c1c(C(F)(F)F)ccc(C(=O)Nc2ncnn2C)c1Cl` [A2-10], the “Activity [%] against Bidens pilosa” value in the test with Bidens pilosa (Greenhouse, dosage 2 g of a.i./ha) stood at 50%. In addition, the “Activity [%] against Brachiaria platyphylla” value in the test with Brachiaria platyphylla (Greenhouse, dosage 1 g of a.i./ha, Table 5-110) is given as 35%; with Brachiaria platyphylla (Greenhouse, dosage 2 g of a.i./ha, Table 5-109), 0%.

For the compound `Nc1c([N+](=O)[O-])ccc(Oc2ccccc2)c1Cl` [aclonifen], the “Activity [%] against Portulaca oleracea” value in the test on Portulaca oleracea (Table 5-22, field, 1200 g of a.i./ha) amounted to 0%.

Consider `C/C(=N\NC(=O)Nc1cc(F)cc(F)c1)c1ncccc1C(=O)O` [diflufenzopyr], for which the “Activity [%] against Setaria viridis” value with Setaria viridis (Greenhouse, dosage 12.5 g of a.i./ha) is listed as 50%. Besides, the “Activity [%] against Ambrosia artemisiifolia” value in the test with Ambrosia artemisiifolia (Table 5-93, greenhouse, 25 g of a.i./ha) came out at 50%. For the same compound, the “Activity [%] against Brachiaria platyphylla” value in the test with Brachiaria platyphylla (Greenhouse, dosage 25 g of a.i./ha, Table 5-113) stood at 60%.

As to `COc1cc(OC)nc(NC(=O)NS(=O)(=O)c2cc(NC=O)ccc2C(=O)N(C)C)n1` [foramsulfuron], in the test with Portulaca oleracea (Table 5-14, field, 16 g of a.i./ha), the “Activity [%] against Portulaca oleracea” value is recorded as 0%.

In the case of `COCc1cnc(C2=NC(C)(C(C)C)C(=O)N2)c(C(=O)O)c1` (centres unmarked) [imazamox], the “Activity [%] against Xanthium strumarium” value was determined as 0% with Xanthium strumarium (setting [3]), 10% in the test with Xanthium strumarium (setting [4]) and 0% in the test with Xanthium strumarium (setting [6]). The “Activity [%] against Bidens pilosa” value was 10% in the test with Bidens pilosa (Table 5-46, greenhouse, alone, 1 g of a.i./ha); 20% in the test with Bidens pilosa (Table 5-47, greenhouse, alone, 2 g of a.i./ha); 10% in the test with Bidens pilosa (Table 5-90, greenhouse, alone, 1 g of a.i./ha). In addition, the “Activity [%] against Pharbitis purpurea” value in the test on Pharbitis purpurea (Table 5-98, greenhouse, 1 g of a.i./ha) is given as 15%. The “Activity [%] against Ambrosia artemisiifolia” value in the test on Ambrosia artemisiifolia (setting [1]) is 10%; in the test with Ambrosia artemisiifolia (setting [5]) it was 0%; in the test with Ambrosia artemisiifolia (Table 5-102, greenhouse, 2 g of a.i./ha), 0%. In addition, in the test on Brachiaria platyphylla (Table 5-45, greenhouse, alone, 2 g of a.i./ha), the “Activity [%] against Brachiaria platyphylla” value was 10%.

`CC(C)c1ccc(NC(=O)N(C)C)cc1` [isoproturon]: the “Activity [%] against Polygonum convolvulus” value in the test with Polygonum convolvulus (Table 5-44, greenhouse, 200 g of a.i./ha) is listed as 0%; in the test with Polygonum convolvulus (Table 5-84, greenhouse, 200 g of a.i./ha), 0%. The “Activity [%] against Setaria viridis” value with Setaria viridis (Table 5-43, greenhouse, alone, 200 g of a.i./ha) is 10%. Besides, the “Activity [%] against Centaurea cyanis” value in the test with Centaurea cyanis (100 g of a.i./ha) worked out at 0%. The “Activity [%] against Papaver rhoeas” value with Papaver rhoeas (Table 5-82, greenhouse, 200 g of a.i./ha) amounted to 40%; with Papaver rhoeas (Table 5-83, greenhouse, 200 g of a.i./ha) it was 40%.

As to `CS(=O)(=O)c1ccc(C(=O)C2C(=O)CCCC2=O)c([N+](=O)[O-])c1` [mesotrione], the “Activity [%] against Portulaca oleracea” value with Portulaca oleracea (Table 5-15, field, 25 g of a.i./ha) stood at 0%.

Turning to `COc1cc(OC)nc(NC(=O)NS(=O)(=O)c2ncccc2C(=O)N(C)C)n1` [nicosulfuron], the “Activity [%] against Portulaca oleracea” value in the test with Portulaca oleracea (Table 5-19, field, 20 g of a.i./ha) is listed as 30%.

Consider `CCC(CC)Nc1c([N+](=O)[O-])cc(C)c(C)c1[N+](=O)[O-]` [pendimethalin], for which the “Activity [%] against Polygonum convolvulus” value is 0% in the test on Polygonum convolvulus (Table 5-37, greenhouse, 100 g of a.i./ha) and 0% in the test on Polygonum convolvulus (Table 5-78, greenhouse, 100 g of a.i./ha). In addition, the “Activity [%] against Xanthium strumarium” value in the test with Xanthium strumarium (Table 5-77, greenhouse, 100 g of a.i./ha) came to 0%. For the same compound, the “Activity [%] against Digitaria sanguinalis” value with Digitaria sanguinalis (Table 5-36, greenhouse, 50 g of a.i./ha) was 0%.

`CCS(=O)(=O)c1cccnc1S(=O)(=O)NC(=O)Nc1nc(OC)cc(OC)n1` [rimsulfuron]: the “Activity [%] against Portulaca oleracea” value in the test with Portulaca oleracea (Table 5-20, field, 6 g of a.i./ha) came out at 0%.

Take `COC(=O)c1csc(C)c1S(=O)(=O)NC(=O)n1nc(OC)n(C)c1=O` [thiencarbazone-methyl]: in the test with Bidens pilosa (Table 5-96, greenhouse, alone, 0.5 g of a.i./ha), the “Activity [%] against Bidens pilosa” value is 40%. Besides, the “Activity [%] against Ambrosia artemisiifolia” value was found to be 0% in the test on Ambrosia artemisiifolia (Table 5-52, greenhouse, 0.25 g of a.i./ha) and 0% in the test on Ambrosia artemisiifolia (Table 5-75, greenhouse, 0.25 g of a.i./ha). Besides, in the test on Brachiaria platyphylla (setting [2]), the “Activity [%] against Brachiaria platyphylla” value is on record as 75%.

Regarding bicyclopyrone, the “Activity [%] against Portulaca oleracea” value with Portulaca oleracea (Table 5-18, field, 25 g of a.i./ha) was 23%.

Values taken from patent US9867376B2, “Herbicidal compositions comprising N-tetrazol-5-yl)- or N-(triazol-5-yl)arylcarboxamides” (priority 2012, dated 2018).
